Target: T1, M. tuberculosis DnaB intein (Mycobacterium tuberculosis, UniProt P9WMR3)
T1 sequence (P9WMR3 400-815 limits assumed): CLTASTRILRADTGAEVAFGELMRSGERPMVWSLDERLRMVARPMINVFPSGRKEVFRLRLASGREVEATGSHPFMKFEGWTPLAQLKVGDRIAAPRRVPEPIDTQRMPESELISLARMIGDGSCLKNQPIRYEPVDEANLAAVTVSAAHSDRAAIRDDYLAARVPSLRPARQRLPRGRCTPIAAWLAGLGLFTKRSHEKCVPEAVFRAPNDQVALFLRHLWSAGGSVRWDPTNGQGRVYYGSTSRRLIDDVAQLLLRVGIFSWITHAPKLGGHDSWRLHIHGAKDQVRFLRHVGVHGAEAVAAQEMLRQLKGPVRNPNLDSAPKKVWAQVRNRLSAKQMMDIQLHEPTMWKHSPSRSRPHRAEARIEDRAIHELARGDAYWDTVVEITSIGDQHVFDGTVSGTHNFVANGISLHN
Assay: biochemical
Format: biochemical

SMILES	IC50 [µM]
O=C(c1c[nH]c(C(=O)C(Cl)(Cl)Cl)c1)c1cccc(Cl)c1Cl [Compound 59]	< 5
O=[N+]([O-])c1cc(C(F)(F)F)cc([N+](=O)[O-])c1Sc1nc2ccccc2[nH]1 [Compound 55]	7
Oc1ccc(Br)cc1CNc1cccc(C(F)(F)F)c1 [Compound 70]	5
O=S(=O)(c1ccc(Br)cc1)c1snnc1-c1ccccc1 [Compound 6]	13
N#CCSc1ccc(C#N)cc1 [Compound 24]	12
Oc1cc2c(cc1C(c1ccc(C(F)(F)F)cc1)N1CCOCC1)OCO2 (stereo not shown) [Compound 69]	37
COc1ccc(NC(=O)C(Cl)=C(Cl)[S+]([O-])Cc2ccccc2)cn1 (stereo not shown) [Compound 9]	7
Cc1cc(Oc2c([N+](=O)[O-])cc(C(F)(F)F)cc2[N+](=O)[O-])ccc1Cl [Compound 64]	< 5
O=S(=O)(c1cccc(C(F)(F)F)c1)c1snnc1-c1ccccc1 [Compound 35]	< 5
N#CC(N)=C(C#N)NCc1ccccc1Sc1ccc(Cl)cc1 [Compound 29]	< 5
CC1(C)CC(=O)C2(C(=O)C1)C(c1ccc(Cl)cc1Cl)C2(C#N)C#N (stereo not shown) [Compound 37]	< 5
COc1ccc(NC(=O)C(Cl)=C(Cl)[S+]([O-])Cc2ccc(C)cc2)cn1 (stereo not shown) [Compound 43]	< 5
CCOC(=O)c1cc(C#N)c(Sc2nnc(SC)s2)nc1C(F)(F)F [Compound 72]	< 5
N#CC1(C#N)C(c2cccc(I)c2)C(C(N)=O)N2C=Cc3ccccc3C21 (stereo not shown) [Compound 17]	15
[O-][S+](c1ccc(C(F)(F)F)cc1)c1cnn2c(Cl)nnc2c1 (stereo not shown) [Compound 45]	< 5
Oc1cc2c(cc1C(c1ccc(Cl)c(Cl)c1)N1CCCC1)OCO2 (stereo not shown) [Compound 1]	30
Oc1cc(OCc2ccc(C(F)(F)F)cc2)ccc1-c1cc[nH]n1 [Compound 44]	< 5
O=C(Nc1ccccc1)c1nnsc1S(=O)(=O)c1ccc(Cl)cc1 [Compound 10]	7
CCCN(CCC)S(=O)(=O)c1ccc(C(=O)SCC(=O)OCC)cc1 [Compound 2]	13

SMILES	IC50 [µM]
CCOC(=O)CSc1nc2c(c(-c3cccs3)c1C#N)CN(C)CC2 [Compound 56]	10
O=C(Sc1ccccc1)c1ccc2ncsc2c1 [Compound 68]	9
COC(=O)c1sc(S(C)(=O)=O)c(C#N)c1-c1cc(C(C)(C)C)oc1C [Compound 33]	< 5
O=C(Oc1ccc(Cl)cc1)c1snnc1-c1ccccc1 [Compound 23]	< 5
CCOC(=O)c1nnc(-c2ccccc2)nc1Sc1ccccc1C(=O)OC [Compound 41]	< 5
O=C(OCn1ncc(Cl)c(Cl)c1=O)c1cccc(C(F)(F)F)c1 [Compound 38]	< 5
Cc1cc(S(=O)(=O)c2ccc(C(F)(F)F)cc2[N+](=O)[O-])c(Cl)cc1Cl [Compound 66]	< 5
O=C(Nn1c(C2CCCCC2)nc2ccccc2c1=O)c1cc([N+](=O)[O-])cc([N+](=O)[O-])c1Cl [Compound 53]	< 5
CCOC(=O)c1cc(C#N)c(Sc2nnc(SCC3CC3)s2)nc1C(F)(F)F [Compound 71]	< 5
C=CCn1c(Sc2ncnc3c2sc(=S)n3CC=C)nnc1-c1ccccc1 [Compound 27]	< 5
O=C(CCl)N1CCN2C(=O)c3ccccc3C12c1ccc(Cl)cc1 (stereo not shown) [Compound 13]	8
Cn1cc(C(=O)c2cccc(Cl)c2Cl)cc1C(=O)C(Cl)(Cl)Cl [Compound 40]	< 5
O=C(c1nnsc1[S+]([O-])c1ccc(Cl)cc1)N1CCCCC1 (stereo not shown) [Compound 11]	8
CC1(C)CC(=O)c2c(S(C)(=O)=O)sc(C(=O)OCc3ccccc3)c2C1 [Compound 30]	< 5
CS(=O)(=O)c1cc(C(F)(F)F)cc(S(C)(=O)=O)c1S(C)(=O)=O [Compound 3]	17
N#CC1(C#N)C(c2ccccc2Cl)C1(C#N)C#N [Compound 21]	15
COc1cccc(N(NC(=O)C(O)(c2cccc(C(F)(F)F)c2)c2cccc(C(F)(F)F)c2)C(=O)CCl)c1 [Compound 51]	< 5
O=S(=O)(c1ccc(Cl)c(Cl)c1)c1snnc1-c1ccccc1 [Compound 7]	6

Reference: patent US7553832B2, “Methods and compositions for specific inhibition of protein splicing by small molecules” (Boston Biomedical Research Institute, priority 2005, dated 2009)
